The values that follow are results of earlier work, collected in US20210361602A1, “DOSING METHODS FOR TREATING INFLAMMATORY BOWEL CONDITIONS” (priority 2020, published 2021).

The conditions of data set [1]: enema by prior methods, two patients; Campieri et al. FIG. 4.
The conditions of data set [2]: orally administered; De Vos et al.

In the case of `Nc1ccc(O)c(C(=O)O)c1` [5-ASA, 5-aminosalicylic acid], the “systemic (plasma) levels of 5-ASA after bowel movement” value in data set [1] is “dramatically lower”. Further, the “levels of 5-ASA in the colon after laxative or colonic lavage” value in data set [2] is given as “decreased”.
